Experimental data as given in patent US20080039410A1, “Inositol 1,4,5-Trisphosphate Receptor Mutants and Uses Thereof” (priority 2004, published 2008).
“Also recorded” adds a separate entry of the source.

What was measured:
[1] = system: S2+ InsP3R-1; experiment: Potentiation of CCh-induced Ca2+ release after PKA activation (forskolin), S2+ InsP3R-1 constructs in DT-40 3ko cells; type: cell-based, rat; settings: for effect of forskolin treatment on CCh-induced [Ca^2+]i peak: 20 μM forskolin, threshold CCh; for Ca^2+ release after PKA activation: S2 + InsP3R-1 constructs, Table 2
Description: DT-40 cells lacking all three InsP3 receptor subtypes DT-40 3ko were transfected using electroporation, 350 V and 950 μF. 2×10^7 cells were co-transfected with 25 μg of the InsP3R cDNA, 25 μg of the muscarinic type 3 (M3) receptor, and 4 μg of the red fluorescent protein plasmid pHcRed1-N1. Cells were incubated with DNA in 500 μL of Optimem media on ice for 10 minutes. The cell/DNA mixture was electroporated, incubated on ice for 30 minutes, brought up to 5 ml with Optimem and placed in a 5% C02 incubator at 39° C. for 5 hours. The cells were then centrifuged and resuspended in 12 ml of complete RPMI media. Transfection efficiency was typically ˜20%. Experiments were performed within 32 hours of transfection.
(§1) Transfected DT-40 3ko cells were washed once in a HEPES-buffered physiological saline solution (HEPES-PSS) containing (in mM) 5.5 glucose, 137 NaCl, 0.56 MgCl2, 4.7 KCl, 1 Na2HPO4, 10 HEPES (pH 7.4), 1.2 CaCl2 and 1% w/v Bovine Serum Albumin. Cells were then resuspended in BSA HEPES-PSS with 1 μM Fura-2 (AM), placed on a 15 mm glass coverslip in a low volume perfusion chamber (Warner Instruments) and allowed to adhere for 30 minutes at room temperature. Cells were perfused continually for 10 minutes with HEPES-PSS before experimentation to allow Fura-2 de-esterification. A field of cells for each experiment was chosen that contained a wide range of transfection efficiency based upon the intensity of red fluorescence emitted when excited at 560 nm. [Ca^2+]i imaging was performed essentially as previously described using an inverted epifluorescence Nikon microscope with a 40× oil immersion objective lens (numerical aperture, 1.3). Cells were excited alternately with light at 340 and 380 nm (±10 mn bandpass filters, Chroma) using a monochrometer (TILL Photonics). Fluorescence images were captured and digitized with a digital camera driven by TILL Photonics software. Images were captured every 2 seconds with an exposure of 35 ms and no binning. 340/380 ratio images were calculated online and stored immediately to hard disk.
(§2) The effects of treatment were determined by normalizing the peak change in fluorescence ratio by stimulation following forskolin or 8-Br cGMP exposure to that of stimulation in control HEPES-PSS. Thus, pooled data represents a normalized fold increase over control for the treated trial. Two tailed heteroscedastic t-tests with P values<0.05 were considered to have statistical significance.
Experiments were performed in DT-40 3ko cells transfected with S2^+ InsP3R-1. Since there are no reports of Gαq coupled receptors expressed in DT-40 cells, initial experiments were performed eliciting [Ca^2+]i changes by stimulating the endogenous B cell receptor with α-IgM antibody. […] Thus, in all further experiments, DT-40 3ko cells were co-transfected with the M3 receptor, and HcRed to facilitate identification of transfected cells (inset FIG. 1). Stimulation of M3 receptors with the muscarinic agonist carbachol (CCh), provided a convenient means of stimulating [Ca^2+]i changes, presumably through Gαq-induced activation of phospholipase C and production of InsP3. […] The potentiation was most marked when threshold elevations in [Ca^2+]i were evoked by the initial exposure to CCh and therefore only cells in which the initial CCh treatment evoked a Δ 340/380 ratio of<0.2 ratio units were included for analysis. […] [Ca^2+]i changes were never evoked by CCh treatment in cells transfected with only M3 cDNA in the absence of InsP3R or likewise InsP3R with no M3 cDNA.
The effects of treatment were determined by normalizing the peak change in fluorescence ratio by stimulation following forskolin or 8-Br-cGMP exposure to that of stimulation in control HEPES-PSS. Thus, pooled data represent a normalized fold increase over control for the treated trial. In all cases where statistical significance is indicated, two-tailed heteroscedastic t tests were performed. […]

[2] = system: S2+ InsP3R-1; experiment: Potentiation of CCh-induced Ca2+ release after PKG activation (8-Br cGMP), S2+ InsP3R-1 constructs in DT-40 3ko cells; type: cell-based, rat; settings: for effect of 8-Br cGMP treatment on CCh-induced Ca^2+ release: 10 μM 8-Br cGMP, threshold CCh; for Ca^2+ release after PKG activation: S2 + InsP3R-1 constructs, Table 2
Description: as §1, §2
Similar experiments were performed to assess the effects on Ca^2+ release of phosphorylating InsP3R-1 with PKG. Cells transfected with S2^+ InsP3R-1 together with M3 receptor and HcRed were stimulated with low, threshold concentrations of CCh (25-50 nM) followed by a 10 min treatment with 10 μM 8-Br cGMP, a specific activator of PKG [48]. […] In a similar fashion to PKA activation, this was manifested as an increase in the CCh-induced initial peak (FIG. 4A and pooled data FIG. 4E).
The effects of treatment were determined by normalizing the peak change in fluorescence ratio by stimulation following forskolin or 8-Br-cGMP exposure to that of stimulation in control HEPES-PSS. Thus, pooled data represent a normalized fold increase over control for the treated trial. In all cases where statistical significance is indicated, two-tailed heteroscedastic t tests were performed. P values<0.05 were considered to indicate statistical significance and are denoted by an asterisk in the figures.
Despite these differences, experiments were performed to define further the phosphorylation sites important for regulation of Ca^2+ release by PKG. […] In contrast, in cells expressing S2+SE no effect on CCh-induced Ca^2+ release following activation of PKG was observed (FIG. 23C and pooled data in FIG. 23D).

Question: What does the source list for “S2+ES: S2+ InsP3R-1, long splice variant with S1589E”?
Answer: effect of forskolin treatment on CCh-induced [Ca^2+]i peak [1]: marked potentiation; also recorded: markedly potentiated; Ca^2+ release after PKA activation [1]: Enhanced; effect of 8-Br cGMP treatment on CCh-induced Ca^2+ release [2]: markedly potentiated; Ca^2+ release after PKG activation [2]: enhanced

Question: What does the source list for “S2+SE: phosphomimetic S2+ InsP3R-1, long splice variant of S1755E”?
Answer: effect of forskolin treatment on CCh-induced [Ca^2+]i peak [1]: no further potentiation; Ca^2+ release after PKA activation [1]: No change; effect of 8-Br cGMP treatment on CCh-induced Ca^2+ release [2]: no effect; also recorded: no potentiation; Ca^2+ release after PKG activation [2]: no change
